Where two headings read alike, the source gives them in different places.
Key:
K-562 = assay: Inhibition of cells growth by colorimetric (SRB) assay, K-562; details: for GI50 / CC50: Homo sapiens, K562, 48 h; for GI50: read-out: K-562 GI50, SRB assay, 48 hours exposure; for CC50: read-out: K-562 LC50, SRB assay, 48 hours exposure; for K-562 TGI: SRB assay, 48 hours exposure
Procedure, shortened: (§1)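 Read-out is sulforhodamine B protein stain (OD 490 nm) after cold TCA fixation, following 48 h continuous exposure to samples spanning 10 to 10^−8 μg/ml.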

A-549 = assay: Inhibition of cells growth by colorimetric (SRB) assay, A-549; details: for GI50 / CC50: Homo sapiens, A549, 48 h
Procedure, shortened: as §1

SK-MEL-28 = assay: Inhibition of cells growth by colorimetric (SRB) assay, SK-MEL-28; details: for GI50 / CC50: Homo sapiens, SK-MEL-28, 48 h; for GI50: read-out: MEL-28 GI50, SRB assay, 48 hours exposure; for CC50: read-out: MEL-28 LC50, SRB assay, 48 hours exposure; for MEL-28 TGI: SRB assay, 48 hours exposure
Procedure, shortened: as §1

HT-29 = assay: Inhibition of cells growth by colorimetric (SRB) assay, HT-29; details: for GI50 / CC50: Homo sapiens, HT-29, 48 h
Procedure, shortened: as §1

LoVo = assay: Inhibition of cells growth by colorimetric (SRB) assay, LoVo; details: for GI50 / CC50: Homo sapiens, LoVo, 48 h; for GI50: read-out: LOVO GI50, SRB assay, 48 hours exposure; for CC50: read-out: LOVO LC50, SRB assay, 48 hours exposure; for LOVO TGI: SRB assay, 48 hours exposure
Procedure, shortened: as §1

LoVo-Dox = assay: Inhibition of cells growth by colorimetric (SRB) assay, LoVo-Dox; details: for GI50 / CC50: Homo sapiens, 48 h; for GI50: read-out: LOVO-DOX GI50, SRB assay, 48 hours exposure; for CC50: read-out: LOVO-DOX LC50, SRB assay, 48 hours exposure; for LOVO-DOX TGI: SRB assay, 48 hours exposure
Procedure, shortened: as §1

DU-145 = assay: Inhibition of cells growth by colorimetric (SRB) assay, DU-145; details: for GI50 / CC50: Homo sapiens, DU-145, 48 h; for GI50: read-out: DU-145 GI50, SRB assay, 48 hours exposure; for CC50: read-out: DU-145 LC50, SRB assay, 48 hours exposure; for DU-145 TGI: SRB assay, 48 hours exposure
Procedure, shortened: as §1

LNCaP = assay: Inhibition of cells growth by colorimetric (SRB) assay, LNCaP; details: for GI50 / CC50: Homo sapiens, LNCaP, 48 h; for GI50: read-out: LN-caP GI50, SRB assay, 48 hours exposure; for CC50: read-out: LN-caP LC50, SRB assay, 48 hours exposure; for LN-caP TGI: SRB assay, 48 hours exposure
Procedure, shortened: as §1

SK-BR-3 = assay: Inhibition of cells growth by colorimetric (SRB) assay, SK-BR-3; details: for GI50 / CC50: Homo sapiens, SK-BR-3, 48 h; for GI50: read-out: SK-BR-3 GI50, SRB assay, 48 hours exposure; for CC50: read-out: SK-BR-3 LC50, SRB assay, 48 hours exposure; for SK-BR-3 TGI: SRB assay, 48 hours exposure
Procedure, shortened: as §1

IGROV-1 = assay: Inhibition of cells growth by colorimetric (SRB) assay, IGROV-1; details: for GI50 / CC50: Homo sapiens, IGROV-1, 48 h; for GI50: read-out: IGROV GI50, SRB assay, 48 hours exposure; for CC50: read-out: IGROV LC50, SRB assay, 48 hours exposure; for IGROV TGI: SRB assay, 48 hours exposure
Procedure, shortened: as §1

IGROV-ET = assay: Inhibition of cells growth by colorimetric (SRB) assay, IGROV-ET; details: for GI50 / CC50: Homo sapiens, 48 h; for GI50: read-out: IGROV-ET GI50, SRB assay, 48 hours exposure; for CC50: read-out: IGROV-ET LC50, SRB assay, 48 hours exposure; for IGROV-ET TGI: SRB assay, 48 hours exposure
Procedure, shortened: as §1

HeLa = assay: Inhibition of cells growth by colorimetric (SRB) assay, HeLa; details: for GI50: Homo sapiens, HeLa, 48 h, read-out: HELA GI50, SRB assay, 48 hours exposure; for HELA TGI: SRB assay, 48 hours exposure
From the text: (§2) The finality of these assays is to interrupt the growth of a “in vitro” tumor cell culture by means a continued exhibition of the cells to the sample to be testing.
(§3) This form of the assay employs 96 well cell culture microplates of 9 mm diameter (Faircloth, 1988; Mosmann, 1983). Most of the cell lines are obtained from American Type Culture Collection (ATCC) derived from different human cancer types.
(§4) Cells are maintained in RPMI 1640 10% FBS, supplemented with 0.1 g/l penicillin and 0.1 g/l streptomycin sulphate and then incubated at 37° C., 5% CO2 and 98% humidity. For the experiments, cells were harvested from subconfluent cultures using trypsin and resuspended in fresh medium before plating.
(§5) Cells are seeded in 96 well microtiter plates, at 5×10^3 cells per well in aliquots of 195 μl medium, and they are allowed to attach to the plate surface by growing in drug free medium for 18 hours. Afterward, samples are added in aliquots of 5 μl in a ranging from 10 to 10^−8 μg/ml, dissolved in DMSO/EtOH/PBS (0.5:0.5:99). After 48 hours exposure, the antitumor effect are measured by the SRB methodology: cells are fixed by adding 50 μl of cold 50% (wt/vol) trichloroacetic acid (TCA) and incubating for 60 minutes at 4° C. Plates are washed with deionized water and dried. One hundred μl of SRB solution (0.4% wt/vol in 1% acetic acid) is added to each microtiter well and incubated for 10 minutes at room temperature. Unbound SRB is removed by washing with 1% acetic acid. Plates are air dried and bound stain is solubilized with Tris buffer. Optical densities are read on a automated spectrophotometric plate reader at a single wavelength of 490 nm.
(§6) The values for mean +/−SD of data from triplicate wells are calculated. Some parameters for cellular responses can be calculated: GI=growth inhibition, TGI=total growth inhibition (cytostatic effect) and LC=cell killing (cytotoxic effect).

HeLa-APL = assay: Inhibition of cells growth by colorimetric (SRB) assay, HeLa-APL; details: for GI50 / CC50: Homo sapiens, 48 h; for GI50: read-out: HELA-APL GI50, SRB assay, 48 hours exposure; for CC50: read-out: HELA-APL LC50, SRB assay, 48 hours exposure; for HELA-APL TGI: SRB assay, 48 hours exposure
From the text: as §2, §3, §4, §5, §6

PANC-1 = assay: Inhibition of cells growth by colorimetric (SRB) assay, PANC-1; details: for GI50 / CC50: Homo sapiens, PANC-1, 48 h; for GI50: read-out: PANC-1 GI50, SRB assay, 48 hours exposure; for CC50: read-out: PANC-1 LC50, SRB assay, 48 hours exposure; for PANC-1 TGI: SRB assay, 48 hours exposure
Procedure, shortened: as §1

[1] = read-out: A-549 GI50, SRB assay, 48 hours exposure
[2] = read-out: A-549 LC50, SRB assay, 48 hours exposure
[3] = read-out: HT-29 GI50, SRB assay, 48 hours exposure
[4] = read-out: HT-29 LC50, SRB assay, 48 hours exposure

For `CS(=O)(=O)c1nccc(-c2c3cccnc3n3c(N)nccc23)n1` [Compound 73], the GI50 (K-562) was 13.7 µM, the CC50 (K-562) was 29.4 µM and the “K-562 TGI” value (K-562) was 2.94E−05. It also gave a GI50 (A-549; [1]) of 11.3 µM, a CC50 (A-549; [2]) of 29.4 µM and a GI50 (A-549; read-out: GI50 A-549, SRB assay, 48 hours exposure) of 4.41 µM. The CC50 (A-549; read-out: LC50 A-549, SRB assay, 48 hours exposure) was at least 147 µM, the “A-549 TGI” value (A-549; SRB assay, 48 hours exposure) was 2.94E−05 and the “TGI A-549” value (A-549; SRB assay, 48 hours exposure) was 1.47E−04. The GI50 (SK-MEL-28) was 5.46 µM, the CC50 (SK-MEL-28) was 29.4 µM and the “MEL-28 TGI” value (SK-MEL-28) was 2.94E−05. It also gave a GI50 (HT-29; read-out: GI50 HT-29, SRB assay, 48 hours exposure) of at least 29.4 µM, a GI50 (HT-29; [3]) of 14.6 µM and a CC50 (HT-29; [4]) of 29.4 µM. The CC50 (HT-29; read-out: LC50 HT-29, SRB assay, 48 hours exposure) was at least 147 µM, the “HT-29 TGI” value (HT-29; SRB assay, 48 hours exposure) was 2.94E−05 and the “TGI HT-29” value (HT-29; SRB assay, 48 hours exposure) was 1.47E−04. The GI50 (LoVo) was 14.4 µM, the CC50 (LoVo) was 29.4 µM and the “LOVO TGI” value (LoVo) was 2.94E−05. The GI50 (LoVo-Dox) was 10.1 µM, the CC50 (LoVo-Dox) was 29.4 µM and the “LOVO-DOX TGI” value (LoVo-Dox) was 2.94E−05. For the same compound, the GI50 (DU-145) was 29.4 µM, the CC50 (DU-145) was 29.4 µM and the “DU-145 TGI” value (DU-145) was 2.94E−05. For the same compound, the GI50 (LNCaP) was 4.76 µM, the CC50 (LNCaP) was 29.4 µM and the “LN-caP TGI” value (LNCaP) was 1.51E−05. For the same compound, the GI50 (SK-BR-3) was 2.08 µM, the CC50 (SK-BR-3) was 29.4 µM and the “SK-BR-3 TGI” value (SK-BR-3) was 9.37E−06. For the same compound, the GI50 (IGROV-1) was 5.41 µM, the CC50 (IGROV-1) was 29.4 µM and the “IGROV TGI” value (IGROV-1) was 2.94E−05. The GI50 (IGROV-ET) was 2.05 µM, the CC50 (IGROV-ET) was 29.4 µM and the “IGROV-ET TGI” value (IGROV-ET) was 2.94E−05. The GI50 (HeLa) was 0.00896 µM, the “HELA TGI” value (HeLa) was 3.58E−08 and the GI50 (HeLa-APL) was 0.013 µM. The CC50 (HeLa-APL) was 7.23 µM, the “HELA-APL TGI” value (HeLa-APL) was 7.23E−08 and the GI50 (PANC-1) was 12.3 µM. For the same compound, the CC50 (PANC-1) was 29.4 µM and the “PANC-1 TGI” value (PANC-1) was 2.94E−05.

For `Cl.Nc1nccc(-c2c3c(Cl)ccnc3n3c(N)nccc23)n1` [Compound 83], the GI50 (K-562) was 2.6 µM, the CC50 (K-562) was 26 µM and the “K-562 TGI” value (K-562) was 1.73E−05. For the same compound, the GI50 (A-549; [1]) was 0.757 µM, the CC50 (A-549; [2]) was 8.66 µM and the “A-549 TGI” value (A-549; SRB assay, 48 hours exposure) was 1.57E−06. For the same compound, the GI50 (SK-MEL-28) was 1.32 µM, the CC50 (SK-MEL-28) was 11.8 µM and the “MEL-28 TGI” value (SK-MEL-28) was 3.64E−06. For the same compound, the GI50 (HT-29; [3]) was 1.37 µM, the CC50 (HT-29; [4]) was 26 µM and the “HT-29 TGI” value (HT-29; SRB assay, 48 hours exposure) was 3.90E−06. The GI50 (LoVo) was 0.471 µM, the CC50 (LoVo) was 2.09 µM and the “LOVO TGI” value (LoVo) was 9.90E−07. The GI50 (LoVo-Dox) was 0.803 µM, the CC50 (LoVo-Dox) was 17.8 µM and the “LOVO-DOX TGI” value (LoVo-Dox) was 1.72E−06. For the same compound, the GI50 (DU-145) was 0.621 µM, the CC50 (DU-145) was 8.32 µM and the “DU-145 TGI” value (DU-145) was 1.49E−06. For the same compound, the GI50 (LNCaP) was 0.424 µM, the CC50 (LNCaP) was 1.52 µM and the “LN-caP TGI” value (LNCaP) was 8.03E−07. The GI50 (SK-BR-3) was 0.575 µM, the CC50 (SK-BR-3) was 1.92 µM and the “SK-BR-3 TGI” value (SK-BR-3) was 1.05E−06. The GI50 (IGROV-1) was 0.998 µM, the CC50 (IGROV-1) was 26 µM and the “IGROV TGI” value (IGROV-1) was 3.17E−06. For the same compound, the GI50 (IGROV-ET) was 1.08 µM, the CC50 (IGROV-ET) was 26 µM and the “IGROV-ET TGI” value (IGROV-ET) was 2.29E−06. For the same compound, the GI50 (HeLa) was 0.0478 µM, the “HELA TGI” value (HeLa) was 1.38E−07 and the GI50 (HeLa-APL) was 0.0478 µM. For the same compound, the CC50 (HeLa-APL) was 0.257 µM, the “HELA-APL TGI” value (HeLa-APL) was 1.11E−07 and the GI50 (PANC-1) was 1.95 µM. The CC50 (PANC-1) was 26 µM and the “PANC-1 TGI” value (PANC-1) was 1.07E−05.
